Blank lines part the entries; values can stand above or below the substance they belong to.
Test system: IgE antibodies from patients
Experiment: Wheat epitope mapping (2): overlapping 10-amino-acid peptide fragments shifted by one amino acid;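 on Rank of partial sequence as epitope binding to IgE antibody: key = sequence deemed particularly important within the common 15-residue sequence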;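 on epitope sequence binding to IgE antibody, rank (Key/Preferably/More preferably): key of grades: preferably = shorter partial sequence still acting as epitope; more preferably = sequence improving IgE binding; key = particularly important sequence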
Assay type: binding, human
In short: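 Cellulose-bound 10-mer peptides offset by one residue were probed with patient serum IgE and detected by chemiluminescence. Secondary-antibody-only signals were subtracted per peptide. Residual binding was expressed as % of the parent overlapping peptide, scored as none (<30%), poor (30–<50%), somewhat poor (50–<70%) or retained (≥70%).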

[1] = serum of patient P14 (WDEIA), sequence without X
[2] = serum of patient P36 (WDEIA), sequence without X
[3] = serum of patient P16 (WDEIA), sequence without X
[4] = serum of patient P29 (WDEIA), partial sequence
[5] = serum of patient G4 (adult, general immediate type allergy to wheat)
[6] = serum of patient P50 (child, general immediate type allergy to wheat), sequence without X
[7] = serum of patient P10 (WDEIA), sequence without X
[8] = serum of patient P35 (WDEIA), sequence without X
[9] = serum of patient P12 (WDEIA), sequence without X
[10] = serum of patient P3 (WDEIA), sequence without X
[11] = serum of patient P26 (WDEIA), sequence without X

epitope sequence binding to IgE antibody, rank (Key/Preferably/More preferably) (serum of patient P28 (WDEIA)): Preferably
Substance: 1867 (TVRTLQR; REGION 1..7: note = epitope) [compound 1867]

epitope sequence binding to IgE antibody, rank (Key/Preferably/More preferably) (serum of patient P22 (WDEIA)): Key
Substance: 1946 (FPGQ; REGION 1..4: note = epitope) [compound 1946]

Epitope sequence binding to IgE antibody, rank of the sequence (Key/Preferably/More preferably) (serum of patient P31 (WDEIA), sequence without X): Key
Substance: 2238 (LLRGIRNYRV; REGION 1..10: note = epitope) [compound 2238]

Epitope sequence binding to IgE antibody, rank of the sequence (serum of patient G7 (adult, general immediate type allergy to wheat), partial sequence): Key
Substance: 2672 (RFEKEAAEMN; REGION 1..10: note = epitope) [compound 2672]

Epitope sequence binding to IgE antibody, rank of the sequence [4]: Key
Substance: 2688 (YKGPTL; REGION 1..6: note = epitope) [compound 2688]

epitope sequence binding to IgE antibody, rank (Key/Preferably/More preferably) [5]: Key
Substance: 1782 (VSSYLKKVGY; REGION 1..10: note = epitope) [compound 1782]

Epitope sequence binding to IgE antibody, rank of the sequence (Key/Preferably/More preferably/Further preferably) [6]: Key
Substance: 2246 (SRLLR; REGION 1..5: note = epitope) [compound 2246]

epitope sequence binding to IgE antibody, rank (Key/Preferably/More preferably) (serum of patient P9 (WDEIA)): Key
Substance: 1915 (QVPLVQQQQ; REGION 1..9: note = epitope) [compound 1915]

epitope sequence binding to IgE antibody, rank (Key/Preferably/More preferably) (serum of patient P2 (WDEIA)): Preferably
Substance: 1896 (VPLVQQQ; REGION 1..7: note = epitope) [compound 1896]

Epitope sequence binding to IgE antibody, rank of the sequence (serum of patient P24 (WDEIA), partial sequence): Key
Substance: 2564 (QLVQQ; REGION 1..5: note = epitope) [compound 2564]

epitope sequence binding to IgE antibody, rank (Key/Preferably/More preferably) (serum of patient P16 (WDEIA)): Preferably
Substance: 1849 (TVRTLQR; REGION 1..7: note = epitope) [compound 1849]

Epitope sequence binding to IgE antibody, rank of the sequence (serum of patient P27 (WDEIA), partial sequence): Key
Substance: 2726 (KIGG; REGION 1..4: note = epitope) [compound 2726]

epitope sequence binding to IgE antibody, rank (Key/Preferably/More preferably) (serum of patient P36 (WDEIA)): Key
Substance: 1824 (LPKFLK; REGION 1..6: note = epitope) [compound 1824]

epitope sequence binding to IgE antibody, rank (Key/Preferably/More preferably) (serum of patient P28 (WDEIA)): Preferably
Substance: 1959 (QFPGQQ; REGION 1..6: note = epitope) [compound 1959]

epitope sequence binding to IgE antibody, rank (Key/Preferably/More preferably) (serum of patient P15 (WDEIA)): Preferably
Substance: 1929 (QFPGQQQ; REGION 1..7: note = epitope) [compound 1929]

epitope sequence binding to IgE antibody, rank (Key/Preferably/More preferably) (serum of patient P33 (WDEIA)): Key
Substance: 1966 (QFPGQQ; REGION 1..6: note = epitope) [compound 1966]

epitope sequence binding to IgE antibody, rank (Key/Preferably/More preferably) (serum of patient P19 (WDEIA)): Preferably
Substance: 1937 (QQFPGQQQ; REGION 1..8: note = epitope) [compound 1937]

epitope sequence binding to IgE antibody, rank (Key/Preferably/More preferably) (serum of patient P8 (WDEIA)): Key
Substance: 1913 (QVPLVQQ; REGION 1..7: note = epitope) [compound 1913]

epitope sequence binding to IgE antibody, rank (Key/Preferably/More preferably) (serum of patient P31 (WDEIA)): Key
Substance: 1877 (TLQR; REGION 1..4: note = epitope) [compound 1877]

Epitope sequence binding to IgE antibody, rank of the sequence (Key/Preferably/More preferably) [11]: Key
Substance: 2287 (KRVIERFEK; REGION 1..9: note = epitope) [compound 2287]

Epitope sequence binding to IgE antibody, rank of the sequence [4]: Preferably
Substance: 2649 (KEAAE; REGION 1..5: note = epitope) [compound 2649]

Epitope sequence binding to IgE antibody, rank of the sequence (serum of patient P22 (WDEIA), partial sequence): Key
Substance: 2646 (KEAAEMN; REGION 1..7: note = epitope) [compound 2646]

epitope sequence binding to IgE antibody, rank (Key/Preferably/More preferably) (serum of patient P25 (WDEIA)): Key
Substance: 1864 (TVRTLQR; REGION 1..7: note = epitope) [compound 1864]

epitope sequence binding to IgE antibody, rank (Key/Preferably/More preferably) (serum of patient P22 (WDEIA)): Key
Substance: 1806 (ELEALPK; REGION 1..7: note = epitope) [compound 1806]

Epitope sequence binding to IgE antibody, rank of the sequence (Key/Preferably/More preferably) [7]: Key
Substance: 2277 (DKRVIERFEK; REGION 1..10: note = epitope) [compound 2277]

epitope sequence binding to IgE antibody, rank (Key/Preferably/More preferably) (serum of patient P3 (WDEIA)): Key
Substance: 1790 (SGKELE; REGION 1..6: note = epitope) [compound 1790]

Epitope sequence binding to IgE antibody, rank of the sequence (serum of patient P36 (WDEIA), partial sequence): Key
Substance: 2695 (YKGPTL; REGION 1..6: note = epitope) [compound 2695]

epitope sequence binding to IgE antibody, rank (Key/Preferably/More preferably) (serum of patient P24 (WDEIA)): Key
Substance: 1949 (VPLVQQ; REGION 1..6: note = epitope) [compound 1949]

Epitope sequence binding to IgE antibody, rank of the sequence (Key/Preferably/More preferably) (serum of patient P29 (WDEIA), sequence without X): Key
Substance: 2383 (HDIDRCAY; REGION 1..8: note = epitope) [compound 2383]

epitope sequence binding to IgE antibody, rank (Key/Preferably/More preferably) (serum of patient P12 (WDEIA)): Preferably
Substance: 1845 (YTVRTLQR; REGION 1..8: note = epitope) [compound 1845]

Epitope sequence binding to IgE antibody, rank of the sequence (Key/Preferably/More preferably/Further preferably) [6]: Further preferably
Substance: 2460 (LKAWSGK; REGION 1..7: note = epitope) [compound 2460]

Epitope sequence binding to IgE antibody, rank of the sequence (Key/Preferably/More preferably) (serum of patient P52 (child, general immediate type allergy to wheat), sequence without X): More preferably
Substance: 2252 (LLRGIRNYRV; REGION 1..10: note = epitope) [compound 2252]

Epitope sequence binding to IgE antibody, rank of the sequence (Key/Preferably/More preferably) [11]: Preferably
Substance: 2435 (KAWSGKTEN; REGION 1..9: note = epitope) [compound 2435]

Further lines, the substance ahead of its results:

Substance: 1385 (KPWQQQPLP; REGION 1..9: note = epitope) [compound 1385]
Epitope sequence binding to IgE antibody, rank of the sequence [1]: Preferably

Substance: 1514 (QVPLVQQQQ; REGION 1..9: note = epitope) [compound 1514]
Rank of partial sequence as epitope binding to IgE antibody (serum of patient P4 (WDEIA), sequence without X): Preferably

Substance: 1256 (PQQPP; REGION 1..5: note = epitope) [compound 1256]
Epitope sequence binding to IgE antibody, rank of the sequence [2]: Key

Substance: 1437 (PQQPISQQQA; REGION 1..10: note = epitope) [compound 1437]
Rank of partial sequence as epitope binding to IgE antibody [3]: Preferably

Substance: 1195 (QFPPQQPYPQ; REGION 1..10: note = epitope) [compound 1195]
Epitope sequence binding to IgE antibody, rank of the sequence (serum of patient P22 (WDEIA), sequence without X): Key

Substance: 1690 (EAANFT; REGION 1..6: note = epitope) [compound 1690]
Rank of partial sequence as epitope binding to IgE antibody [3]: Key

Substance: 1316 (VEDNRRALR; REGION 1..9: note = epitope) [compound 1316]
Epitope sequence binding to IgE antibody, rank of the sequence [1]: Key

Substance: 1605 (AQLEAIRS; REGION 1..8: note = epitope) [compound 1605]
Rank of partial sequence as epitope binding to IgE antibody [7]: More preferably

Substance: 1663 (YNPDKVPFV; REGION 1..9: note = epitope) [compound 1663]
Rank of partial sequence as epitope binding to IgE antibody (serum of patient G2 (adult, general immediate type allergy to wheat), sequence without X): Preferably

Substance: 1763 (LKKVGYN; REGION 1..7: note = epitope) [compound 1763]
epitope sequence binding to IgE antibody, rank (Key/Preferably/More preferably) (serum of patient P27 (WDEIA)): Key

Substance: 1743 (EAAN; REGION 1..4: note = epitope) [compound 1743]
epitope sequence binding to IgE antibody, rank (Key/Preferably/More preferably) [5]: Key

Substance: 1489 (QQPISQQQAQ; REGION 1..10: note = epitope) [compound 1489]
Rank of partial sequence as epitope binding to IgE antibody [8]: Preferably

Substance: 1216 (PQQPP; REGION 1..5: note = epitope) [compound 1216]
Epitope sequence binding to IgE antibody, rank of the sequence (serum of patient P7 (WDEIA), sequence without X): Preferably

Substance: 1715 (KEAA; REGION 1..4: note = epitope) [compound 1715]
epitope sequence binding to IgE antibody, rank (Key/Preferably/More preferably) (serum of patient P35 (WDEIA)): Key

Substance: 1704 (EAANFT; REGION 1..6: note = epitope) [compound 1704]
Rank of partial sequence as epitope binding to IgE antibody (serum of patient P28 (WDEIA), sequence without X): Key

Substance: 1723 (KEAANF; REGION 1..6: note = epitope) [compound 1723]
epitope sequence binding to IgE antibody, rank (Key/Preferably/More preferably) (serum of patient P50 (child, general immediate type allergy to wheat)): Key

Substance: 1426 (YLQPQ; REGION 1..5: note = epitope) [compound 1426]
Epitope sequence binding to IgE antibody, rank of the sequence [9]: Key

Substance: 1568 (PFPQTQ; REGION 1..6: note = epitope) [compound 1568]
Rank of partial sequence as epitope binding to IgE antibody [10]: Key

Substance: 1499 (YLQPQQPISQ; REGION 1..10: note = epitope) [compound 1499]
Rank of partial sequence as epitope binding to IgE antibody (serum of patient G7 (adult, general immediate type allergy to wheat), sequence without X): More preferably

Substance: 1311 (NVEN; REGION 1..4: note = epitope) [compound 1311]
Epitope sequence binding to IgE antibody, rank of the sequence [7]: Key

Substance: 1208 (QQFPPQQ; REGION 1..7: note = epitope) [compound 1208]
Epitope sequence binding to IgE antibody, rank of the sequence [8]: Key

Substance: 1538 (LVQQQQFLGQ; REGION 1..10: note = epitope) [compound 1538]
Rank of partial sequence as epitope binding to IgE antibody (serum of patient P17 (WDEIA), sequence without X): Further preferably

Substance: 1646 (YNPDKVPF; REGION 1..8: note = epitope) [compound 1646]
Rank of partial sequence as epitope binding to IgE antibody [2]: Preferably

Substance: 1409 (QPQQPISQQQ; REGION 1..10: note = epitope) [compound 1409]
Epitope sequence binding to IgE antibody, rank of the sequence [10]: Preferably

Substance: 1528 (QVPLVQQ; REGION 1..7: note = epitope) [compound 1528]
Rank of partial sequence as epitope binding to IgE antibody [9]: Preferably

— patent US20240393292A1, “ALLERGY ANTIGEN AND EPITOPE THEREOF” (HOYU CO., LTD., priority 2019, published 2024)
